# Assay results as given in US20260108546A1 (ELI LILLY AND COMPANY, priority 2024, published 2026).
# Biological target: T1, hGIP-R (Homo sapiens, UniProt P48546)
# T1 construct: expressed in transfected cells; host or cells: HEK-293 clonal cell lines
# T1 sequence (P48546 22-466): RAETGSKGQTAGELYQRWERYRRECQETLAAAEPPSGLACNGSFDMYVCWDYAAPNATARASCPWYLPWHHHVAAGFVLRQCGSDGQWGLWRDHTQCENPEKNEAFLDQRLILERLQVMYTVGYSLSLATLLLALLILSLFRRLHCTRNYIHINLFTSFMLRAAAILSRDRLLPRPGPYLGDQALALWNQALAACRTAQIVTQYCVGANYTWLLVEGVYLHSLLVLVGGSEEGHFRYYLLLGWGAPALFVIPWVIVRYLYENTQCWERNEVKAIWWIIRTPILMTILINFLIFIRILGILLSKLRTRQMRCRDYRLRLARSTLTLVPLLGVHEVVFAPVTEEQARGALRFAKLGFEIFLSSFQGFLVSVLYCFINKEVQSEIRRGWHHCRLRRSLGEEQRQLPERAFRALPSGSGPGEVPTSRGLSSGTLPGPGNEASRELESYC
# Test: Functional hGIP-R Assay (cAMP formation, HTRF)
# Format: cell-based
# Settings: for Emax: cAMP efficacy, percent of maximal response to GIP(1-42)OH, 37° C., 0.1% bovine casein, arithmetic mean ± SEM; for EC50: cAMP potency, HEK-293 cells expressing hGIP-R, incubated at 37° C. in the presence of 0.1% bovine casein, geometric mean, read-out: Human GIP-R EC50, nM (SEM, n)
# Outline: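 Relative EC50 and Emax came from four-parameter logistic fits of cAMP as a percent of the human GIP (1-42) OH maximal response. The cAMP was measured by competitive HTRF after 30 min, 37 °C compound exposure of hGIP-R HEK-293 clones in IBMX (250 μM)-containing medium.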
Emax,EC50,Compound
86.9 ± 7.93%,0.904 nM,"CC(C)(Cn1nc(C(F)(F)F)cc1-c1cn[nH]n1)NC(=O)[C@@H](Cc1cnc2ncccn12)NC(=O)[C@H]1C[C@@H]1c1ccc(-c2cnc3nc(C(F)(F)F)cn3c2)cc1 [Example 68, (1S,2S)-N—((R)-1-((1-(5-(2H-1,2,3-Triazol-4-yl)-3-(trifluoromethyl)-1H-pyrazol-1-yl)-2-methylpropan-2-yl)amino)-3-(imidazo[1,2-a]pyrimidin-3-yl)-1-oxopropan-2-yl)-2-(4-(2-(trifluoromethyl)imidazo[1,2-a]pyrimidin-6-yl)phenyl)cyclopropane-1-carboxamide]"
87.8 ± 8.06%,34 nM,"Cn1cc2cc(-c3ccc([C@H]4C[C@@H]4C(=O)N[C@H](Cc4cnc5ncccn45)C(=O)NC(C)(C)Cn4nc(C(F)(F)F)cc4-c4cn[nH]n4)cc3)cnc2n1 [Example 69, (1S,2S)-N-((R)-1-((1-(5-(2H-1,2,3-Triazol-4-yl)-3-(trifluoromethyl)-1H-pyrazol-1-yl)-2-methylpropan-2-yl)amino)-3-(imidazo[1,2-a]pyrimidin-3-yl)-1-oxopropan-2-yl)-2-(4-(2-methyl-2H-pyrazolo [3,4-b]pyridin-5-yl)phenyl)cyclopropane-1-carboxamide]"
102 ± 2.2%,158 nM,"CN(C(=O)[C@H]1C[C@@H]1c1ccc(-c2cnc3nn(C)cc3c2)cc1)[C@H](Cc1cnn(C)c1)C(=O)NC(C)(C)Cn1nc(C(F)(F)F)cc1-c1cn[nH]n1 [Example 70, (1S,2S)-N-((R)-1-((1-(5-(2H-1,2,3-Triazol-4-yl)-3-(trifluoromethyl)-1H-pyrazol-1-yl)-2-methylpropan-2-yl)amino)-3-(1-methyl-1H-pyrazol-4-yl)-1-oxopropan-2-yl)-N-methyl-2-(4-(2-methyl-2H-pyrazolo [3,4-b]pyridin-5-yl)phenyl)cyclopropane-1-carboxamide]"
102 ± 3.65%,13.6 nM,"CC(C)(Cn1cc(C(F)(F)F)cn1)NC(=O)[C@@H](Cc1cnc2ncccn12)NC(=O)[C@H]1C[C@@H]1c1ccc(-c2cnc3nc(C4CC(F)(F)C4)cn3c2)cc1 [Example 74, (1S,2S)-2-(4-(2-(3,3-Difluorocyclobutyl)imidazo[1,2-a]pyrimidin-6-yl)phenyl)-N-((R)-3-(imidazo[1,2-a]pyrimidin-3-yl)-1-((2-methyl-1-(4-(trifluoromethyl)-1H-pyrazol-1-yl)propan-2-yl)amino)-1-oxopropan-2-yl)cyclopropane-1-carboxamide]"
119 ± 6.64%,65 nM,"COCc1cn2cc(-c3ccc([C@H]4C[C@@H]4C(=O)N[C@H](Cc4cnc5ncccn45)C(=O)NC(C)(C)Cn4cc(C(F)(F)F)cn4)cc3)cnc2n1 [Example 75, (1S,2S)-N-((R)-3-(Imidazo[1,2-a]pyrimidin-3-yl)-1-((2-methyl-1-(4-(trifluoromethyl)-1H-pyrazol-1-yl)propan-2-yl)amino)-1-oxopropan-2-yl)-2-(4-(2-(methoxymethyl)imidazo[1,2-a]pyrimidin-6-yl)phenyl)cyclopropane-1-carboxamide]"
97.2 ± 7.63%,16.2 nM,"CC(C)(Cn1cc(C(F)(F)F)cn1)NC(=O)[C@@H](Cc1cnc2ncccn12)NC(=O)[C@H]1C[C@@H]1c1ccc(-c2cnc3nc(C4CC4)cn3c2)cc1 [Example 76, (1S,2S)-2-(4-(2-Cyclopropylimidazo[1,2-a]pyrimidin-6-yl)phenyl)-N-((R)-3-(imidazo[1,2-a]pyrimidin-3-yl)-1-((2-methyl-1-(4-(trifluoromethyl)-1H-pyrazol-1-yl)propan-2-yl)amino)-1-oxopropan-2-yl)cyclopropane-1-carboxamide]"
103 ± 12%,88.2 nM,"CC(C)(Cn1cc(C(F)(F)F)cn1)NC(=O)[C@@H](Cc1cnc2ncccn12)NC(=O)[C@H]1C[C@@H]1c1ccc(-c2cnc3nn(CC4CCC4)cc3c2)cc1 [Example 77, (1S,2S)-2-(4-(2-(Cyclobutylmethyl)-2H-pyrazolo[3,4-b]pyridin-5-yl)phenyl)-N-((R)-3-(imidazo[1,2-a]pyrimidin-3-yl)-1-((2-methyl-1-(4-(trifluoromethyl)-1H-pyrazol-1-yl)propan-2-yl)amino)-1-oxopropan-2-yl)cyclopropane-1-carboxamide]"
113 ± 18.8%,20.3 nM,"CC(C)(Cn1cc(C(F)(F)F)cn1)NC(=O)[C@@H](Cc1cnc2ncccn12)NC(=O)[C@H]1C[C@@H]1c1ccc(-c2cnc3nc(C4CCC4)cn3c2)cc1 [Example 78, (1S,2S)-2-(4-(2-Cyclobutylimidazo[1,2-a]pyrimidin-6-yl)phenyl)-N-((R)-3-(imidazo[1,2-a]pyrimidin-3-yl)-1-((2-methyl-1-(4-(trifluoromethyl)-1H-pyrazol-1-yl)propan-2-yl)amino)-1-oxopropan-2-yl)cyclopropane-1-carboxamide]"
104 ± 5%,25.1 nM,"CC(C)(Cn1cc(C(F)(F)F)cn1)NC(=O)[C@@H](Cc1cnc2ncccn12)NC(=O)[C@H]1C[C@@H]1c1ccc(-c2cnc3nc(C(F)F)cn3c2)cc1 [Example 79, (1S,2S)-2-(4-(2-(Difluoromethyl)imidazo[1,2-a]pyrimidin-6-yl)phenyl)-N-((R)-3-(imidazo[1,2-a]pyrimidin-3-yl)-1-((2-methyl-1-(4-(trifluoromethyl)-1H-pyrazol-1-yl)propan-2-yl)amino)-1-oxopropan-2-yl)cyclopropane-1-carboxamide]"
109 ± 4.1%,28.6 nM,"CC(C)(Cn1cc(C(F)(F)F)cn1)NC(=O)[C@@H](Cc1cnc2ncccn12)NC(=O)[C@H]1C[C@@H]1c1ccc(-c2cnc3nc(C(C)(F)F)cn3c2)cc1 [Example 80, (1S,2S)-2-(4-(2-(1,1-Difluoroethyl)imidazo[1,2-a]pyrimidin-6-yl)phenyl)-N-((R)-3-(imidazo[1,2-a]pyrimidin-3-yl)-1-((2-methyl-1-(4-(trifluoromethyl)-1H-pyrazol-1-yl)propan-2-yl)amino)-1-oxopropan-2-yl)cyclopropane-1-carboxamide]"
117 ± 0.667%,33.1 nM,"CC(C)(Cn1cc(C(F)(F)F)cn1)NC(=O)[C@@H](Cc1cnc2ncccn12)NC(=O)[C@H]1C[C@@H]1c1ccc(-c2cnc3nc(C4(C)CC4)cn3c2)cc1 [Example 81, (1S,2S)-N-((R)-3-(Imidazo[1,2-a]pyrimidin-3-yl)-1-((2-methyl-1-(4-(trifluoromethyl)-1H-pyrazol-1-yl)propan-2-yl)amino)-1-oxopropan-2-yl)-2-(4-(2-(1-methylcyclopropyl)imidazo[1,2-a]pyrimidin-6-yl)phenyl)cyclopropane-1-carboxamide]"
106 ± 2.58%,36.4 nM,"CCc1cn2cc(-c3ccc([C@H]4C[C@@H]4C(=O)N[C@H](Cc4cnc5ncccn45)C(=O)NC(C)(C)Cn4cc(C(F)(F)F)cn4)cc3)cnc2n1 [Example 82, (1S,2S)-2-(4-(2-Ethylimidazo[1,2-a]pyrimidin-6-yl)phenyl)-N-((R)-3-(imidazo[1,2-a]pyrimidin-3-yl)-1-((2-methyl-1-(4-(trifluoromethyl)-1H-pyrazol-1-yl)propan-2-yl)amino)-1-oxopropan-2-yl)cyclopropane-1-carboxamide]"
95.4 ± 7.12%,44.1 nM,"Cc1cn2cc(-c3ccc([C@H]4C[C@@H]4C(=O)N[C@H](Cc4cnc5ncccn45)C(=O)NC(C)(C)Cn4cc(C(F)(F)F)cn4)cc3)cnc2n1 [Example 83, (1S,2S)-N-((R)-3-(Imidazo[1,2-a]pyrimidin-3-yl)-1-((2-methyl-1-(4-(trifluoromethyl)-1H-pyrazol-1-yl)propan-2-yl)amino)-1-oxopropan-2-yl)-2-(4-(2-methylimidazo[1,2-a]pyrimidin-6-yl)phenyl)cyclopropane-1-carboxamide]"
89.7%,37.8 nM,"CC(C)(Cn1cc(C(F)(F)F)cn1)NC(=O)[C@@H](Cc1cnc2ncccn12)NC(=O)[C@H]1C[C@@H]1c1ccc(-c2cnc3nn(C4CCC4)cc3c2)cc1 [Example 84, (1S,2S)-2-(4-(2-Cyclobutyl-2H-pyrazolo[3,4-b]pyridin-5-yl)phenyl)-N-((R)-3-(imidazo[1,2-a]pyrimidin-3-yl)-1-((2-methyl-1-(4-(trifluoromethyl)-1H-pyrazol-1-yl)propan-2-yl)amino)-1-oxopropan-2-yl)cyclopropane-1-carboxamide]"
87 ± 0.761%,41 nM,"CC(C)(Cc1ccc(F)cn1)NC(=O)[C@@H](Cc1cnc2ncccn12)NC(=O)[C@H]1C[C@@H]1c1ccc(-c2cnc3nc(C(F)(F)F)cn3c2)cc1 [Example 85, (1S,2S)-N-((R)-1-((1-(5-Fluoropyridin-2-yl)-2-methylpropan-2-yl)amino)-3-(imidazo[1,2-a]pyrimidin-3-yl)-1-oxopropan-2-yl)-2-(4-(2-(trifluoromethyl)imidazo[1,2-a]pyrimidin-6-yl)phenyl)cyclopropane-1-carboxamide]"
71.1 ± 2.32%,10.2 nM,"CC(C)(Cc1ccc(F)cc1)NC(=O)[C@@H](Cc1cnc2ncccn12)NC(=O)[C@H]1C[C@@H]1c1ccc(-c2cnc3nc(C(F)(F)F)cn3c2)cc1 [Example 86, (1S,2S)-N-((R)-1-((1-(4-Fuorophenyl)-2-methylpropan-2-yl)amino)-3-(imidazo[1,2-a]pyrimidin-3-yl)-1-oxopropan-2-yl)-2-(4-(2-(trifluoromethyl)imidazo[1,2-a]pyrimidin-6-yl)phenyl)cyclopropane-1-carboxamide]"
